Test results published in the NIST ThermoML archive (doi:10.1021/acs.jced.6b00504).
± gives the expanded uncertainty stated by the source.

Assay: wn = mass fraction of the nth substance listed
Conditions: 100 kPa, Liquid; for viscosity: Falling or rolling sphere viscometry; for mass density: Vibrating tube method

## CNCCO [2-(methylamino)ethanol] + O
293.15 K, w1 = 0.075
  viscosity: 1.39 ± 0.012 mPa·s
  mass density: 997.66 ± 5.8 kg/m3
293.15 K, w1 = 0.15
  viscosity: 1.875 ± 0.017 mPa·s
  mass density: 997.93 ± 5.8 kg/m3
293.15 K, w1 = 0.225
  viscosity: 2.702 ± 0.024 mPa·s
  mass density: 999 ± 5.8 kg/m3
293.15 K, w1 = 0.3
  viscosity: 3.973 ± 0.036 mPa·s
  mass density: 1001.69 ± 5.8 kg/m3
298.15 K, w1 = 0.075
  viscosity: 1.217 ± 0.011 mPa·s
  mass density: 996.35 ± 5.8 kg/m3
298.15 K, w1 = 0.15
  viscosity: 1.639 ± 0.015 mPa·s
  mass density: 996.35 ± 5.8 kg/m3
298.15 K, w1 = 0.225
  viscosity: 2.367 ± 0.021 mPa·s
  mass density: 997.03 ± 5.8 kg/m3
298.15 K, w1 = 0.3
  viscosity: 3.335 ± 0.03 mPa·s
  mass density: 999.21 ± 5.8 kg/m3
303.15 K, w1 = 0.075
  viscosity: 1.075 ± 0.01 mPa·s
  mass density: 994.81 ± 5.8 kg/m3
303.15 K, w1 = 0.15
  viscosity: 1.426 ± 0.013 mPa·s
  mass density: 994.57 ± 5.8 kg/m3
303.15 K, w1 = 0.225
  viscosity: 2.02 ± 0.018 mPa·s
  mass density: 994.9 ± 5.8 kg/m3
303.15 K, w1 = 0.3
  viscosity: 2.886 ± 0.026 mPa·s
  mass density: 996.58 ± 5.8 kg/m3
308.15 K, w1 = 0.075
  viscosity: 0.958 ± 0.009 mPa·s
  mass density: 993.06 ± 5.8 kg/m3
308.15 K, w1 = 0.15
  viscosity: 1.263 ± 0.011 mPa·s
  mass density: 992.6 ± 5.8 kg/m3
308.15 K, w1 = 0.225
  viscosity: 1.744 ± 0.016 mPa·s
  mass density: 992.58 ± 5.8 kg/m3
308.15 K, w1 = 0.3
  viscosity: 2.461 ± 0.022 mPa·s
  mass density: 993.8 ± 5.8 kg/m3
313.15 K, w1 = 0.075
  viscosity: 0.859 ± 0.008 mPa·s
  mass density: 991.11 ± 5.8 kg/m3
313.15 K, w1 = 0.15
  viscosity: 1.151 ± 0.01 mPa·s
  mass density: 990.45 ± 5.8 kg/m3
313.15 K, w1 = 0.225
  viscosity: 1.521 ± 0.014 mPa·s
  mass density: 990.11 ± 5.8 kg/m3
313.15 K, w1 = 0.3
  viscosity: 2.157 ± 0.019 mPa·s
  mass density: 990.81 ± 5.8 kg/m3
318.15 K, w1 = 0.075
  viscosity: 0.777 ± 0.007 mPa·s
  mass density: 988.99 ± 5.8 kg/m3
318.15 K, w1 = 0.15
  viscosity: 1.022 ± 0.009 mPa·s
  mass density: 988.13 ± 5.8 kg/m3
318.15 K, w1 = 0.225
  viscosity: 1.409 ± 0.013 mPa·s
  mass density: 987.49 ± 5.8 kg/m3
318.15 K, w1 = 0.3
  viscosity: 1.902 ± 0.017 mPa·s
  mass density: 987.7 ± 5.8 kg/m3
323.15 K, w1 = 0.075
  viscosity: 0.707 ± 0.006 mPa·s
  mass density: 986.7 ± 5.8 kg/m3
323.15 K, w1 = 0.15
  viscosity: 0.993 ± 0.009 mPa·s
  mass density: 985.66 ± 5.8 kg/m3
323.15 K, w1 = 0.225
  viscosity: 1.299 ± 0.012 mPa·s
  mass density: 984.71 ± 5.8 kg/m3
323.15 K, w1 = 0.3
  viscosity: 1.727 ± 0.016 mPa·s
  mass density: 984.5 ± 5.8 kg/m3
